Laboratory results published in the CheMixHub ionic liquid set.
± gives the uncertainty stated by the source.

Experiment: xn = mol fraction of the nth substance listed

O=C1CCCCO1 + CCCC[n+]1ccn(C)c1.O=S(=O)([N-]S(=O)(=O)C(F)(F)F)C(F)(F)F
100 kPa, frequency 0.01 MHz
Conditions	electrical conductivity [S/m]
293.15 K, x2 = 0.1504	0.602 ± 0.024
293.15 K, x2 = 0.4006	0.589 ± 0.024
293.15 K, x2 = 0.8475	0.346 ± 0.014
298.15 K, x2 = 0.1004	0.428 ± 0.019
298.15 K, x2 = 0.4006	0.665 ± 0.027
298.15 K, x2 = 0.5005	0.594 ± 0.024
298.15 K, x2 = 0.5999	0.484 ± 0.019
303.15 K, x2 = 0.1004	0.471 ± 0.02
303.15 K, x2 = 0.1504	0.717 ± 0.029
308.15 K, x2 = 0.0532	0.209 ± 0.013
308.15 K, x2 = 0.1004	0.512 ± 0.022
308.15 K, x2 = 0.2988	0.9 ± 0.036
308.15 K, x2 = 0.7214	0.609 ± 0.024
318.15 K, x2 = 0.1999	1.04 ± 0.042
323.15 K, x2 = 0.0532	0.263 ± 0.016
323.15 K, x2 = 0.1504	1 ± 0.041
323.15 K, x2 = 0.1999	1.13 ± 0.045
323.15 K, x2 = 0.7214	0.895 ± 0.036

Nc1ccccc1 + CCCC[n+]1ccn(C)c1.O=S(=O)([O-])C(F)(F)F
Conditions	viscosity [mPa·s]
323.15 K, 100 kPa, x1 = 1	1.927 ± 0.085

CCCCOCCO + CCCC[n+]1ccn(C)c1.[Br-]
100 kPa, x2 = 0
Conditions	viscosity [mPa·s]
298.15 K	2.79 ± 0.28
303.15 K	2.44 ± 0.25
308.15 K	2.22 ± 0.22
313.15 K	1.98 ± 0.2

CCCOCCO + CCCC[n+]1ccn(C)c1.[Br-]
100 kPa, x2 = 0
Conditions	viscosity [mPa·s]
298.15 K	2.38 ± 0.24
303.15 K	2.11 ± 0.21
308.15 K	1.88 ± 0.19
313.15 K	1.69 ± 0.17

O + CCCC[n+]1ccn(C)c1.[Br-]
101 kPa, x2 = 0
Conditions	electrical conductivity [S/m]
288.15 K	0.000101 ± 1.1e-06
298.15 K	0.00015 ± 1.6e-06
308.15 K	0.000216 ± 2.3e-06

CC1COC(=O)O1 (centres undefined) + CCCCn1cc[n+](C)c1C.O=S(=O)([N-]S(=O)(=O)C(F)(F)F)C(F)(F)F
101.3 kPa, x2 = 0
Conditions	viscosity [mPa·s]
288.15 K	3.063 ± 0.064
293.15 K	2.746 ± 0.058
343.15 K	1.213 ± 0.026

O + CCCO + CCCCCCCCCCCCOS(=O)(=O)[O-].[Na+]
Conditions	electrical conductivity [S/m]
298 K, 100 kPa, frequency 0.001 MHz, x2 = 0, x1 = 1	0.0005 ± 0.00062

CCC[N+]1(C)CCCC1.O=S(=O)([N-]S(=O)(=O)C(F)(F)F)C(F)(F)F + CCC[N+]1(C)CCCC1.N#C[N-]C#N
101 kPa, x2 = 0
Conditions	electrical conductivity [S/m]	viscosity [mPa·s]
313.15 K	0.678 ± 0.068	34.4 ± 3.6
353.15 K	–	11.6 ± 1.2

CCC[N+]1(C)CCCC1.O=S(=O)([N-]S(=O)(=O)C(F)(F)F)C(F)(F)F + CCC[N+](C)(C)C.O=S(=O)([N-]S(=O)(=O)C(F)(F)F)C(F)(F)F
Conditions	viscosity [mPa·s]
298.15 K, 101.3 kPa, x2 = 0	61 ± 12

CC[n+]1ccn(C)c1.N#C[N-]C#N + CCO
viscosity [mPa·s]
Conditions	298.15 K	303.15 K	308.15 K	313.15 K	318.15 K	323.15 K	328.15 K	343.15 K
100 kPa, x1 = 0.0997	1.85 ± 0.6	1.71 ± 0.6	1.56 ± 0.6	1.44 ± 0.6	1.33 ± 0.6	1.23 ± 0.6	–	–
100 kPa, x1 = 0.196	2.7 ± 0.6	2.47 ± 0.6	2.25 ± 0.6	2.07 ± 0.6	1.9 ± 0.6	1.75 ± 0.6	–	–
100 kPa, x1 = 0.3001	3.66 ± 0.6	3.31 ± 0.6	3.02 ± 0.6	2.76 ± 0.6	2.53 ± 0.6	2.33 ± 0.6	–	–
100 kPa, x1 = 0.3945	4.62 ± 0.6	4.16 ± 0.6	3.78 ± 0.6	3.45 ± 0.6	3.16 ± 0.6	2.9 ± 0.6	–	–
100 kPa, x1 = 0.4997	5.82 ± 0.6	5.23 ± 0.6	4.72 ± 0.6	4.29 ± 0.6	3.92 ± 0.6	3.59 ± 0.6	–	–
100 kPa, x1 = 0.5993	7.11 ± 0.6	6.35 ± 0.6	5.71 ± 0.6	5.16 ± 0.6	4.7 ± 0.6	4.29 ± 0.6	–	–
100 kPa, x1 = 0.7013	8.69 ± 0.61	7.71 ± 0.61	6.89 ± 0.6	6.19 ± 0.6	5.61 ± 0.6	5.1 ± 0.6	–	–
100 kPa, x1 = 0.8014	10.45 ± 0.81	9.21 ± 0.61	8.17 ± 0.61	7.3 ± 0.61	6.57 ± 0.6	5.95 ± 0.6	–	–
100 kPa, x1 = 0.8929	11.97 ± 0.81	10.48 ± 0.81	9.25 ± 0.61	8.23 ± 0.61	7.37 ± 0.61	6.65 ± 0.61	–	–
100 kPa, x1 = 1	13.09 ± 0.82	11.39 ± 0.81	10 ± 0.81	8.86 ± 0.61	7.92 ± 0.61	7.13 ± 0.61	–	–
101 kPa, x2 = 0	–	–	–	10.07 ± 0.42	–	–	7.26 ± 0.3	–
101 kPa, x2 = 0.1981	–	–	–	–	–	–	–	4.25 ± 0.18
101 kPa, x2 = 0.3596	–	–	–	5.68 ± 0.25	–	–	4.29 ± 0.19	–
101 kPa, x2 = 0.6028	4.42 ± 0.2	–	–	–	–	–	–	–
101 kPa, x2 = 0.7678	2.72 ± 0.12	–	–	–	–	–	–	–

O=C1CCCCCN1 + CCO + CCCC[N+](CCCC)(CCCC)CCCC.[Cl-]
electrical conductivity [S/m], 101 kPa
Conditions	x1 = 0.0058, x3 = 0.0058	x1 = 0.00584, x3 = 0.0058	x1 = 0.00587, x3 = 0.00587	x1 = 0.0059, x3 = 0.0059	x2 = 0.555, x1 = 0.2225	x2 = 0.6648, x1 = 0.1676	x2 = 0.7728, x1 = 0.1136	x2 = 0.8892, x1 = 0.0554
295.65 K	–	–	–	–	0.218 ± 0.0022	0.2632 ± 0.0026	0.3032 ± 0.003	–
298.15 K	–	–	–	–	0.232 ± 0.0023	0.268 ± 0.0027	0.31 ± 0.0031	–
300.65 K	–	0.0588 ± 0.001	–	–	0.241 ± 0.0024	0.269 ± 0.0027	0.3143 ± 0.0031	–
303.15 K	–	–	–	0.0587 ± 0.001	0.256 ± 0.0026	0.27 ± 0.0027	0.317 ± 0.0032	0.25 ± 0.0026
305.65 K	–	0.0586 ± 0.001	–	–	0.2704 ± 0.0027	0.2713 ± 0.0027	0.317 ± 0.0032	0.25 ± 0.0026
308.15 K	–	0.0585 ± 0.001	–	–	0.2842 ± 0.0028	0.2737 ± 0.0027	0.319 ± 0.0032	0.249 ± 0.0026
310.65 K	–	–	–	0.0585 ± 0.001	0.2936 ± 0.0029	0.276 ± 0.0028	0.3224 ± 0.0032	0.248 ± 0.0026
313.15 K	–	0.0585 ± 0.001	–	–	0.3023 ± 0.003	0.278 ± 0.0028	0.325 ± 0.0033	0.248 ± 0.0026
315.65 K	–	–	–	0.0587 ± 0.001	0.308 ± 0.0031	0.28 ± 0.0028	0.328 ± 0.0033	0.248 ± 0.0026
318.15 K	–	–	–	0.0587 ± 0.001	0.3136 ± 0.0031	0.2821 ± 0.0028	0.329 ± 0.0033	0.248 ± 0.0026
320.65 K	–	0.0587 ± 0.001	–	–	0.3131 ± 0.0031	0.2841 ± 0.0028	0.3303 ± 0.0033	0.246 ± 0.0026
323.15 K	–	0.0586 ± 0.001	–	–	0.315 ± 0.0032	0.287 ± 0.0029	0.329 ± 0.0033	0.245 ± 0.0026
325.65 K	0.0584 ± 0.001	–	–	–	0.3129 ± 0.0031	0.288 ± 0.0029	0.327 ± 0.0033	0.246 ± 0.0026
328.15 K	0.0576 ± 0.001	–	–	–	–	0.289 ± 0.0029	–	0.246 ± 0.0026
330.65 K	–	0.0569 ± 0.0009	–	–	–	0.288 ± 0.0029	–	0.245 ± 0.0026
333.15 K	–	–	0.0562 ± 0.0009	–	–	0.288 ± 0.0029	–	0.245 ± 0.0026

CC[n+]1ccn(C)c1.N#C[N-]C#N + CCO + O
viscosity [mPa·s], 101 kPa
Conditions	298.15 K	313.15 K	328.15 K	343.15 K
x2 = 0.0957, x3 = 0.7595	3.15 ± 0.13	2.21 ± 0.09	–	–
x2 = 0.1156, x3 = 0.8359	2.25 ± 0.09	1.52 ± 0.06	–	–
x2 = 0.1191, x3 = 0.3486	6.67 ± 0.27	4.77 ± 0.2	3.64 ± 0.15	2.85 ± 0.12
x2 = 0.2007, x3 = 0.7083	2.87 ± 0.12	2 ± 0.08	1.42 ± 0.06	1.08 ± 0.04
x2 = 0.2484, x3 = 0.6015	3.39 ± 0.14	2.36 ± 0.1	1.74 ± 0.07	1.34 ± 0.06
x2 = 0.2507, x3 = 0.6986	2.65 ± 0.11	1.76 ± 0.07	1.25 ± 0.05	0.94 ± 0.04
x2 = 0.2881, x3 = 0.404	4.63 ± 0.19	3.33 ± 0.14	2.52 ± 0.11	2.02 ± 0.08
x2 = 0.379, x3 = 0.1385	5.89 ± 0.25	4.31 ± 0.18	3.3 ± 0.14	2.63 ± 0.11
x2 = 0.4202, x3 = 0.3032	4 ± 0.17	2.92 ± 0.12	2.23 ± 0.1	1.77 ± 0.08
x2 = 0.4889, x3 = 0.4093	2.77 ± 0.12	1.95 ± 0.08	–	–
x2 = 0.6949, x3 = 0.2046	2.27 ± 0.1	–	–	–

O + CCOS(=O)(=O)[O-].CC[n+]1ccn(C)c1
Conditions	electrical conductivity [S/m]
298.15 K, 101.3 kPa, x1 = 1	0.00264 ± 0.00026

CC1COC(=O)O1 (centres undefined) + CC[N+](CC)(CC)CC.F[B-](F)(F)F
101 kPa, x1 = 1
Conditions	viscosity [mPa·s]
283.15 K	3.551 ± 0.051
298.15 K	2.531 ± 0.037
308.15 K	2.09 ± 0.031
313.15 K	1.918 ± 0.029
